SMILES strings stand for the structures. Numbers after ± are expanded uncertainties.

The conditions of the data set: Crystal; DTA.

For the compound `CCN(C(=O)N(CC)c1ccccc1)c1ccccc1` [1,3-diethyl-1,3-diphenylurea], the Normal melting temperature stood at 72.6 ± 0.9 °C.
On to `CC(=O)OCCNc1ccc([N+](=O)[O-])cc1` [2-[(4-nitrophenyl)amino]ethanol 1-acetate], for which the Normal melting temperature is 113.2 ± 0.9 °C.
The same measure for `O=[N+]([O-])c1ccccc1Nc1ccccc1` [2-nitrodiphenylamine]: 74.8 ± 0.9 °C; for `COCCNc1ccc([N+](=O)[O-])cc1` [N-(2-methoxyethyl)-4-nitroaniline]: 85.8 ± 0.9 °C; for `c1ccc(Nc2ccccc2)cc1` [diphenylamine]: 52.5 ± 0.9 °C.

For the origin of these results see the NIST ThermoML archive (doi:10.1016/j.fluid.2019.06.021).
